# According to patent EP2308493A1, “AMELIORATING OR THERAPEUTIC AGENT FOR DYSLIPIDEMIA” (Mochida Pharmaceutical Co., Ltd., priority 2008, dated 2010):
# How the values were obtained:
# [1] = system: high sucrose diet-fed hamster; assay: Effectiveness in high sucrose diet-fed hamster (plasma lipid change rate); format: in vivo, Syrian hamsters; conditions: for Change rate Non-HDL Cho / Change rate TG / Change rate Total Cho: 14th day, versus control group
# Method: Pharmacological action of EPA-E and/or tocopherol nicotinate on plasma lipids was confirmed by using hamsters that had been fed high sucrose diet. 6 week old male Syrian hamsters (Japan SLC, Inc.) were allowed to freely take fish meal-less F-1 diet (F-1, Funabashi Farm) under 12 hour light-dark cycles at 23°C for 2 weeks, and then, high sucrose diet (D11511, Research Diet Inc.) for 2 weeks. 6 groups (each comprising 6 animals), namely, control group, EPA-E 300 group, EPA-E 1000 group, tocopherol nicotinate 1000 group (hereinafter referred to as TN1000 group), low dose combination group, and high dose combination group were set. During the feeding of the high sucrose diet, the EPA-E 300 group was administered with 300 mg/kg of EPA-E (Mochida Pharmaceutical Co.); the EPA-E 1000 group was administered with 1000 mg/kg of EPA-E; the TN1000 group was administered with 1000 mg/kg of tocopherol nicotinate (Wako Pure Chemical Industries, Ltd.); the low dose combination group was administered with 300 mg/kg of EPA-E and 1000 mg/kg of tocopherol nicotinate; and the high dose combination group was administered with 1000 mg/kg of EPA-E and 1000 mg/kg of tocopherol nicotinate after suspending in 5% aqueous solution of gum arabic. The control group was orally administered with 5% aqueous solution of gum arabic once a day. Blood was collected one day before the start of the administration and on the 14th day of the administration, and plasma was separated by centrifugation. Plasma TG, total Cho, and HDL Cho concentration were respectively measured using a biochemical analyzer (A0400, Olympus Corporation) and commercially available assay reagent (Wako Pure Chemical Industries, Ltd.). The nan-HDL Cho concentration (total Cho-HDL Cho) was also calculated. No statistically significant difference was found in the plasma lipid concentrations of various groups on the day before the start of the administration. The plasma TG, total Cho, and non-HDL Cho concentration of each group at 14th day of the drug administration was compared with the corresponding values of the control group, and change rate was calculated by the following equation: Change rate (%) = [{(lipid concentration of each group)-(lipid concentration of control group)}x100]/(lipid concentration of the control group) [formula] For the combination group, sum of the change rate of the EPA-E sole administration group and the change rate of the tocopherol nicotinate sole administration group is shown in Table 1 as the theoretical change rate of the combination group. When the change rate of the actual measurement was negative and the value was lower than the theoretical value, synergistic effect by the combined use in the lipid decrease was deemed to have been realized.
# [2] = system: Cho diet rabbit; assay: Effectiveness in Cho diet rabbit (plasma lipids, auricle skin temperature, platelet collagen aggregation); format: in vivo, Japan white male rabbits; conditions: HCD diet 12 weeks; EPA-E 1000 mg/kg or tocopherol nicotinate 300 mg/kg orally once a day; compared to control group
# From the text: Pharmacological action of EPA-E and/or tocopherol nicotinate on plasma lipids, auricle skin temperature, and platelet aggregation is confirmed by using rabbits that have been fed with Cho diet (hereinafter referred to as "HCD diet") known to develop a dyslipidemia. Japan white male rabbits (Funabashi Farm) having a body weight of 2.7 to 3.3 kg are allowed to freely take 100 g/day of normal diet (F-1, Funabashi Farm) or HCD diet (RC-4 supplemented with 1% Cho, Oriental Yeast Co.,Ltd.) for 12 weeks under 12 hour light-dark cycles at 23°C. 5 groups (each comprising 10 animals), namely, normal group (normal diet feeding); control group (HCD diet feeding); EPA-E group (HCD diet feeding + EPA-E administration); tocopherol nicotinate group (HCD diet feeding + tocopherol nicotinate administration); and combination group (HCD diet feeding + EPA-E administration + tocopherol nicotinate administration) are set. During the feeding, the EPA-E group is administered with 1000 mg/kg of EPA-E; the tocopherol nicotinate group is administered with 300 mg/kg of tocopherol nicotinate; and the combination group is administered with 1000 mg/kg of EPA-E and […] of tocopherol nicotinate after suspending in 5% aqueous solution of gum arabic. The administration is conducted orally once a day. The normal group and the control group are orally administered with 5% aqueous solution of gum arabic once a day. At the start of the administration and after 12 weeks of feeding, auricle skin temperature is measured by thermography and blood is collected for plasma biochemical tests. Platelet collagen aggregation is also checked after 12 weeks of feeding by measuring absorbance.
# [3] = system: hypertriglyceridemia rat; assay: Effectiveness in hypertriglyceridemia rat; format: in vivo, Zucker Diabetic Fatty rat; conditions: 4 weeks; EPA-E 300 mg/kg or tocopherol nicotinate 100 mg/kg orally once a day as emulsion; compared to control group
# Method: 6 week old male Zucker Diabetic Fatty rat (Charles River Japan) are allowed to freely take diabetes-inducing diet (Purina 5008 (crude protein content, 23.5%; crude lipid content, 6.5%)) under 12 hour light-dark cycles at 23°C. 4 groups (each comprising 10 animals), namely, control group; EPA-E group (EPA-E administration); tocopherol nicotinate group (tocopherol nicotinate administration); and combination group (EPA-E administration + tocopherol nicotinate administration) are set. During the feeding, the EPA-E group is administered with 300 mg/kg of EPA-E; the tocopherol nicotinate group is administered with 100 mg/kg of tocopherol nicotinate; and the combination group is administered with 300 mg/kg of EPA-E and 100 mg/kg of tocopherol nicotinate. The administration is conducted orally once a day. The drugs are administered by preparing an emulsion preparation according to Preparation Example 8. The control group is orally administered with base of the emulsion preparation of Preparation Example 8 once a day. At the start of the administration and after 4 weeks of feeding, auricle skin temperature is measured by thermography and blood is collected for plasma biochemical test.
# [4] = system: lauric acid-induced peripheral arterial occlusive hypertriglyceridemia rat; assay: Effectiveness in lauric acid-induced peripheral arterial occlusive hypertriglyceridemia rat (lesion score); format: in vivo, Wister rats; conditions: 2 weeks after the surgery; EPA-E 300 mg/kg or tocopherol nicotinate 100 mg/kg orally once a day; compared to control group
# Method: 4 week old male Wister rats (Japan SLC, Inc.) are allowed to freely take high sucrose diet (AIN-76A, PURINA MILLS) for 4 weeks under 12 hour light-dark cycles at 23°C. 5 groups (each comprising 10 animals), namely, sham surgery group; control group, EPA-E group (EPA-E administration); tocopherol nicotinate group (tocopherol nicotinate administration); and combination group (EPA-E administration + tocopherol nicotinate administration) are set. During the feeding, the EPA-E group is administered with 300 mg/kg of EPA-E; the tocopherol nicotinate group is administered with 100 mg/kg of tocopherol nicotinate; and the combination group is administered with 300 mg/kg of EPA-E and 100 mg/kg of tocopherol nicotinate after suspending in 5% aqueous solution of gum arabic. The administration is conducted orally once a day. […] Progress of the lesion of the limbs on the peripheral side of the injection site is scored for wet gangrene and dry gangrene, and the lesion is visually inspected with naked eyes every day until 2 weeks after the surgery. Progress of the lesion is scored by the following criteria: • Score 0: no change, score 1: the lesion is limited to nail, score 2: the lesion is limited to finger, score 3: the lesion is expanded to footpad, and score 4: the lesion is expanded to lower limb.
SMILES,Change rate Non-HDL Cho ([1]; 300 mg/kg orally) [%],Change rate TG ([1]; 300 mg/kg orally) [%],Change rate Total Cho ([1]; 300 mg/kg orally) [%],Change rate Non-HDL Cho ([1]; 1000 mg/kg orally) [%],Change rate TG ([1]; 1000 mg/kg orally) [%],Change rate Total Cho ([1]; 1000 mg/kg orally) [%],decrease of the auricle skin temperature [2],enhancement of the platelet collagen aggregation [2],plasma TG concentration [2],plasma total Cho concentration [2],plasma TG concentration [3],plasma free fatty acid concentration [3],"score of progress of the lesion (wet and dry gangrene, 0-4) [4]","lipid reducing action (plasma TG, total Cho, non-HDL Cho) ([1]; high sucrose diet, 14 days oral administration)"
"CC/C=C\C/C=C\C/C=C\C/C=C\C/C=C\CCCC(=O)OCC [EPA-E, Ethyl icosapentaenoate]",14.8,2.7,11.1,11.1,19.6,2.7,,,,,,,,
Cc1c(C)c2c(c(C)c1OC(=O)c1cccnc1)CCC(C)(CCCC(C)CCCC(C)CCCC(C)C)O2 (centres unmarked) [tocopherol nicotinate],,,,-11.6,-23.3,-3.7,also suppressed,also suppressed,suppressed increase,suppressed increase,suppressed increase,suppressed increase,improved scores,the action of reducing the TG and non-HDL Cho was found
